The IC50 is the concentration that inhibits the measured activity by half. A word on the Ki: it is a dissociation constant, usually derived from enzyme kinetics or from competition with a known ligand.

For 17 compounds, IC50 and Ki results are on record in US9675697B2 (THE REGENTS OF THE UNIVERSITY OF MICHIGAN, priority 2013, dated 2017).

Experiment [1] relates to leukemia MOLM-13 cell line. In words: 4-day cell viability assay, CellTiter-Glo. The format is cell-based. The conditions noted are these: Homo sapiens, MOLM-13, 96 h, read-out: Cell Growth Inhibition (IC50 (nM)) MOLM-13 Cell Line (CellTiter-Glo assay). Here is the method: (§1) The effect of representative BET bromodomain inhibitors on cell viability was determined in a 4-day proliferation assay. Cells were maintained in the appropriate culture medium with 10% FBS at 37° C. and an atmosphere of 5% CO2. All the cell lines were used within three months of thawing fresh vials.
(§2) Cells were seeded in 96-well flat bottom (Corning COSTAR, Corning, N.Y., cat#3595) or white opaque cell culture plates (BD Falcon, cat#353296) at a density of 3,000-10,000 cells/well in 75 μl of culture medium. Compounds were serially diluted in the appropriate medium, and 75 μl of the diluted compounds were added to the appropriate wells of the cell plate. After the addition of compounds, the cells were incubated at 37° C. in an atmosphere of 5% CO2 for 4 days. Cell viability was determined using the CellTiter-Glo® Luminescent Cell Viability Assay Kit (Promega, Madison, Wis.) for MOLM-13 cells and WST (2-(2-methoxy-4-nitrophenyl)-3-(4-nitrophenyl)-5-(2,4-disulfophenyl)-2H-tetrazolium, monosodium salt) Cell Counting-8 Kit (Dojindo Molecular Technologies, Inc., Rockville, Md.) for MDA-MB-436 cells according to the manufacturers' instructions.
For the CellTiter-Glo assay, 100 μl of CellTiter-Glo® Reagent was added to each well, and then the plates were incubated at room temperature for 10-20 minutes. The luminescent signal was measured using a Tecan Infinite M1000 multimode microplate reader (Tecan, Morrisville, N.C.). The readings were normalized to the DMSO-treated cells and the IC50 was calculated by nonlinear regression (four parameters sigmoid fitted with variable slope, least squares fit, and no constraint) analysis using the GraphPad Prism 5 software.
For orientation: In ATP-based viability assays light output follows the ATP content of the culture.

The subject of experiment [2] is breast cancer MDA-MB-436 cell line. Description: 4-day cell viability assay, WST. The conditions noted are these: Homo sapiens, MDA-MB-436, 96 h, read-out: Cell Growth Inhibition (IC50 (nM)) MDA-436 Cell Line (WST assay). The class given is cell-based. Here is the method:
as §1, §2
For the WST assay, WST-8 reagent was added to each well at a final concentration of 10% (v/v), and then the plates were incubated at 37° C. for 1-2 hours for color development. The absorbance was measured at 450 nm using a SPECTRAmax PLUS plate reader (Molecular Devices, Sunnyvale, Calif.). The readings were normalized to the DMSO-treated cells and the half maximal inhibitory concentration (IC50) was calculated by nonlinear regression (four parameters sigmoid fitted with variable slope, least squares fit, and no constraint) analysis using the GraphPad Prism 5 software (GraphPad Software, La Jolla, Calif.).

The target in experiment [3] is BRD2 BD1 (Homo sapiens (Human), UniProt P25440). In words: FP competitive binding assay using Cpd. No. 350 as the probe.
BRD2 BD1, sequence (P25440 74-180): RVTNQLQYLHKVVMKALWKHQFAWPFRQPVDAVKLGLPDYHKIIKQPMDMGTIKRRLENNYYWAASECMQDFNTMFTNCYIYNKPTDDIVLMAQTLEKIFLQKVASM
In experiment [4] the target is BRD2 BD2 (Homo sapiens (Human), UniProt P25440). Described as above.
BRD2 BD2, sequence (P25440 344-453): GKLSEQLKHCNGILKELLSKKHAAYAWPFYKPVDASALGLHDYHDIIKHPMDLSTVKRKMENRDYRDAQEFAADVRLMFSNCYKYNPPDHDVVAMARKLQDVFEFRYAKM
Description: (§3) Fluorescence Polarization (FP) competitive binding studies (see above) were carried out using the FAM labeled fluorescent probe Cpd. No. 350 to determine binding affinities of representative compounds to both BD1 and BD2 of BRD2, BRD3, and BRD4 proteins. Equilibrium dissociation constants (Id) values of Cpd. No. 350 to these six proteins were determined from protein saturation experiments by monitoring the total fluorescence polarization of mixtures composed with the fluorescent probe at a fixed concentration and proteins with increasing concentrations up to full saturation. Serial dilutions of testing protein were mixed with Cpd. No. 350 to a final volume of 200 μl in the assay buffer. […] Plates were incubated at room temperature for 30 minutes with gentle shaking to assure equilibrium. […] Kd values of Cpd.
(§4) The IC50 and Ki values of compounds were determined in a competitive binding experiment as described above. […] FP values were measured as described above. IC50 values were determined by nonlinear regression fitting of the competition curves.
Experiment [5] addresses BRD3 BD1 (Homo sapiens (Human), UniProt Q15059). The description is as above.
Description: as §3, §4
Experiment [6] has as its target BRD3 BD2 (Homo sapiens (Human), UniProt Q15059). The experiment is described as above.
Description: as §3, §4
For experiment [7], the target named is BRD4 BD1 (Homo sapiens (Human), UniProt O60885). Described as above.
Description: as §3, §4
Experiment [8] concerns the target BRD4 BD2 (Homo sapiens (Human), UniProt O60885). The experiment is described as above.
Description: as §3, §4
Setting [9] is: read-out: BRD2 BD1 Ki, FP, Cpd. No. 350 probe […].
Where [10] appears, read: read-out: BRD2 BD2 Ki, FP, Cpd. No. 350 probe […].
[11] abbreviates: read-out: BRD3 BD1 Ki, FP, Cpd. No. 350 probe […].
The mark [12] stands for this setting: read-out: BRD3 BD2 Ki, FP, Cpd. No. 350 probe […].
The mark [13] stands for this setting: read-out: BRD4 BD1 Ki, FP, Cpd. No. 350 probe […].
Setting [14] is: read-out: BRD4 BD2 Ki, FP, Cpd. No. 350 probe […].

Each structure is given as a SMILES string. Read-outs that look alike come from different tables or passages of the source.

BRD3 BD1, sequence (Q15059 34-140): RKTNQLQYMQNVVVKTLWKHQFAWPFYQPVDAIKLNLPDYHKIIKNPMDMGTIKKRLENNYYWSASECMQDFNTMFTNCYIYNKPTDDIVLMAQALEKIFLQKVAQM
BRD3 BD2, sequence (Q15059 306-415): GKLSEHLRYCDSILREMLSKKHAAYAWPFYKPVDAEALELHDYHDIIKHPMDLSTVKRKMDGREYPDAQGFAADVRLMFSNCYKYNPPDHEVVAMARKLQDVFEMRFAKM

Turning to `COc1cc2c(cc1-c1c(C)noc1C)[nH]c1nc(C)nc(-c3cc(C(=O)NC4CCN(C)CC4)cc(C(C)(C)C)c3)c12` [Cpd. No. 319], the IC50 in experiment [1] is 10 nM; in experiment [2], 67.4 nM.
Consider `COc1cc2c(cc1-c1c(C)nn(C)c1C)[nH]c1ccnc(Cl)c12` [RX-27], for which the Ki worked out at 5450 ± 1920 nM in experiment [3] (setting [9]); 2840 ± 574 nM in experiment [4] (setting [10]); 5030 ± 1010 nM in experiment [5] (setting [11]); 2050 ± 142 nM in experiment [6] (setting [12]); 4842 ± 29 nM in experiment [7] (setting [13]); 1950 ± 175 nM in experiment [8] (setting [14]).
Consider `COc1cc2c(cc1-c1c(C)nn(C)c1C)[nH]c1ccnc(-c3c(C)nn(C)c3C)c12` [Cpd. No. 33, 8-methoxy-1,7-bis(1,3,5-trimethyl-1H-pyrazol-4-yl)-5H-pyrido[4,3-b]indole], for which the Ki in experiment [3] was 1670 ± 448 nM; in experiment [4] it was 909 ± 272 nM; in experiment [5], 1220 ± 100 nM; in experiment [6] it was 348 ± 12 nM; in experiment [7] it was 1726 ± 17 nM; in experiment [8], 867 ± 107 nM.
For `CCc1noc(C)c1-c1cc2[nH]c3ccnc(Cl)c3c2cc1OC` [RX-39], the Ki in experiment [3] (setting [9]) worked out at 1720 ± 892 nM; in experiment [4] (setting [10]), 638 ± 70 nM; in experiment [5] (setting [11]), 668 ± 82 nM; in experiment [6] (setting [12]), 406 ± 192 nM; in experiment [7] (setting [13]), 1240 ± 549 nM; in experiment [8] (setting [14]), 478 ± 69 nM.
Take `CCc1noc(CC)c1-c1cc2[nH]c3ccnc(Cl)c3c2cc1OC` [RX-45]: the values for the Ki in experiment [6] (setting [12]), in experiment [7] (setting [13]) and in experiment [8] (setting [14]) were 3440 ± 1980 nM, more than 10000 nM and 8320 ± 3220 nM, respectively.
Take `COc1cc2c(cc1-c1c(C)noc1C)[nH]c1nc(C)nc(-c3cc(C(=O)NC4CCN(C5CCOCC5)CC4)[nH]c3C(C)C)c12` [Cpd. No. 212, 4-(7-(3,5-Dimethylisoxazol-4-yl)-6-methoxy-2-methyl-9H-pyrimido[4,5-b]indol-4-yl)-5-isopropyl-N-(1-(tetrahydro-2H-pyran-4-yl)piperidin-4-yl)-1H-pyrrole-2-carboxamide]: the IC50 was 22 nM in experiment [1] (4 days) and 100 nM in experiment [2] (4 days). Also, the Ki was 5.7 nM in experiment [3] (setting [9]); 4.6 nM in experiment [4] (setting [10]); 10.2 nM in experiment [5] (setting [11]); 1 nM in experiment [6] (setting [12]); 17 nM in experiment [7] (setting [13]); 4.5 nM in experiment [8] (setting [14]).
Take `COc1cc2c(cc1-c1c(C)noc1C)[nH]c1nc(C)nc(-c3ccc(C(=O)NC4CCN(C5COC5)CC4)c4ccccc34)c12` [Cpd. No. 197, 4-(7-(3,5-Dimethylisoxazol-4-yl)-6-methoxy-2-methyl-9H-pyrimido[4,5-b]indol-4-yl)-N-(1-(oxetan-3-yl)piperidin-4-yl)-1-naphthamide]: the IC50 in experiment [1] (4 days) came to 17.3 nM; in experiment [2] (4 days), 101 nM. Further, the Ki came to 6.2 nM in experiment [3] (setting [9]); 3.6 nM in experiment [4] (setting [10]); 10.5 nM in experiment [5] (setting [11]); 1.3 nM in experiment [6] (setting [12]); 17.1 nM in experiment [7] (setting [13]); 8.9 nM in experiment [8] (setting [14]).
On to `COc1cc2c(cc1-c1c(C)noc1C)[nH]c1nc(C)nc(-c3ccc(NC(=O)N4CCN(C5COC5)CC4)c4ccccc34)c12` [Cpd. No. 317], for which the figures for the IC50 in experiment [1] and in experiment [2] were 31.6 nM and 169 nM, respectively.
`COc1cc2c(cc1-c1c(C)noc1C)[nH]c1nc(C)nc(-c3ccc(C(=O)NC4CCN(C)CC4)c4ccccc34)c12` [Cpd. No. 196, 4-(7-(3,5-Dimethylisoxazol-4-yl)-6-methoxy-2-methyl-9H-pyrimido[4,5-b]indol-4-yl)-N-(1-methylpiperidin-4-yl)-1-naphthamide]: the figures for the IC50 in experiment [1] (4 days) and in experiment [2] (4 days) were 6.8 nM and 53 nM, respectively. The Ki in experiment [3] (setting [9]) is 4.3 nM; in experiment [4] (setting [10]) it was 3.5 nM; in experiment [5] (setting [11]), 9.7 nM; in experiment [6] (setting [12]), 1.4 nM; in experiment [7] (setting [13]), 12.3 nM; in experiment [8] (setting [14]), 7 nM.
On to `COc1cc2c(cc1-c1c(C)noc1C)[nH]c1nc(C)nc(-c3cc(C(=O)NC4CCN(C5COC5)CC4)[nH]c3C(C)C)c12` [Cpd. No. 213, 4-(7-(3,5-Dimethylisoxazol-4-yl)-6-methoxy-2-methyl-9H-pyrimido[4,5-b]indol-4-yl)-5-isopropyl-N-(1-(oxetan-3-yl)piperidin-4-yl)-1H-pyrrole-2-carboxamide], for which the results for the IC50 in experiment [1] (4 days) and in experiment [2] (4 days) were 48 nM and 225 nM, respectively. The Ki in experiment [3] (setting [9]) is 10.5 nM; in experiment [4] (setting [10]), 7.1 nM; in experiment [5] (setting [11]), 14 nM; in experiment [6] (setting [12]), 2.2 nM; in experiment [7] (setting [13]), 20.8 nM; in experiment [8] (setting [14]), 6.5 nM.
Regarding `COc1cc2c(cc1-c1c(C)noc1C)[nH]c1nc(C)nc(-c3ccc(C(=O)N4CCN(C)CC4)c4ccccc34)c12` [Cpd. No. 207, (4-(7-(3,5-Dimethylisoxazol-4-yl)-6-methoxy-2-methyl-9H-pyrimido[4,5-b]indol-4-yl)naphthalen-1-yl)(4-methylpiperazin-1-yl)methanone], the figures for the IC50 in experiment [1] (4 days) and in experiment [2] (4 days) were 5.3 nM and 58.1 nM, respectively. Further, the Ki is 5.3 nM in experiment [3] (setting [9]); 5.1 nM in experiment [4] (setting [10]); 10 nM in experiment [5] (setting [11]); 1.3 nM in experiment [6] (setting [12]); 14.7 nM in experiment [7] (setting [13]); 4.1 nM in experiment [8] (setting [14]).
As to `COc1cc2c(cc1-c1c(C)noc1C)[nH]c1nc(C)nc(-c3cc(C(=O)NC4CCN(C5COC5)CC4)cc(C(C)(C)C)c3)c12` [Cpd. No. 322], the IC50 in experiment [1] came out at 19.4 nM; in experiment [2], 63.9 nM.
As for `COc1cc2c(cc1-c1c(C)noc1C)[nH]c1nc(C)nc(-c3cc(C(=O)NC4CCN(C)CC4)[nH]c3C(C)C)c12` [Cpd. No. 211, 4-(7-(3,5-Dimethylisoxazol-4-yl)-6-methoxy-2-methyl-9H-pyrimido[4,5-b]indol-4-yl)-5-isopropyl-N-(1-methylpiperidin-4-yl)-1H-pyrrole-2-carboxamide], the IC50 in experiment [1] (4 days) came to 10.4 nM; in experiment [2] (4 days), 140 nM. For the same compound, the Ki in experiment [3] (setting [9]) came to 5.7 nM; in experiment [4] (setting [10]), 4.9 nM; in experiment [5] (setting [11]), 10.8 nM; in experiment [6] (setting [12]), 1.2 nM; in experiment [7] (setting [13]), 17.2 nM; in experiment [8] (setting [14]) it was 5.2 nM.
`COc1cc2c(cc1-c1c(C)noc1C)[nH]c1ccnc(Cl)c12` [RX-3, 4-(1-chloro-8-methoxy-5H-pyrido[4,3-b]indol-7-yl)-3,5-dimethylisoxazole]: the Ki is 215 ± 34 nM in experiment [3] (setting [9]); 109 ± 10 nM in experiment [4] (setting [10]); 144 ± 17 nM in experiment [5] (setting [11]); 63.8 ± 6 nM in experiment [6] (setting [12]); 305 ± 26 nM in experiment [7] (setting [13]); 194 ± 24 nM in experiment [8] (setting [14]).
Consider `COc1cc2c(cc1-c1c(C)noc1C)[nH]c1ccnc(-c3c(-c4ccccc4)n[nH]c3C)c12` [Cpd. No. 26, 4-(8-methoxy-1-(5-methyl-3-phenyl-1H-pyrazol-4-yl)-5H-pyrido[4,3-b]indol-7-yl)-3,5-dimethylisoxazole], for which the IC50 worked out at 431 nM in experiment [1] (4 days) and 696 nM in experiment [2] (4 days).
With `COc1cc2c(cc1-c1c(C)noc1C)[nH]c1nc(C)nc(-c3ccc(NC(=O)N4CCN(C)CC4)c4ccccc34)c12` [Cpd. No. 316], the IC50 in experiment [1] worked out at 7.4 nM; in experiment [2] it was 45.2 nM.
Turning to `CCc1onc(C)c1-c1cc2[nH]c3ccnc(Cl)c3c2cc1OC` [RX-38], the Ki in experiment [3] (setting [9]) came out at 760 ± 240 nM; in experiment [4] (setting [10]), 1880 ± 432 nM; in experiment [5] (setting [11]), 703 ± 432 nM; in experiment [6] (setting [12]), 1280 ± 1070 nM; in experiment [7] (setting [13]), 2810 ± 782 nM; in experiment [8] (setting [14]), 2180 ± 132 nM.
